Earlier results on 5 molecules are cited in patent EP4160208A1, “URINE SEDIMENT STAINING LIQUID” (TOYOBO CO., LTD., priority 2020, dated 2021).

For orientation: pKa means the pH at which an ionisable group is half protonated. With `NC(=O)CN(CC(=O)O)CC(=O)O` [ADA], the pKa was 6.80.

Take `O=S(=O)(O)CCN(CCO)CCO` [BES]: the pKa is 7.15.

Take `O=S(=O)(O)CCN1CCN(CCO)CC1` [HEPES]: the pKa is 7.55.

Regarding `O=S(=O)(O)CCNC(CO)(CO)CO` [TES], the pKa is reported as 7.50.

Regarding `O=C(O)CNC(CO)(CO)CO` [Tricine], the pKa is 8.15.
